Assay results taken from patent publication US20240287054A1, “COMPOUNDS THAT BIND NON-CANONICAL G-QUADRUPLEX STRUCTURES AND METHODS OF MAKING AND USING THE SAME” (The U.S.A., as Represented by the Secretary, Department of …, priority 2021, published 2024).

Columns and labels:
[1] = system: 12 different G4 oligos as well as non-G4 oligos (dsDNA and ssDNA); assay: Small-scale DNA G4 microarray binding selectivity; conditions: B33 at 2.5 μM
Description: In this example, a small-scale DNA G4 microarray containing 12 different G4 oligos as well as non-G4 oligos (dsDNA and ssDNA) was fabricated and tested (Table 4). To start with, a SA-coated glass surface was prepared. An amino-functionalized glass slide was firstly modified with a solution of N, N′-disuccinimidyl carbonate (DSC, 1.0 M) and N, N-diisopropylethylamine (DIPEA, 1.0 M) in DMF overnight at room temperature. After being washed successively with EtOH, Milli-Q water (5 min each) and dried with N2 gas, the slide was incubated with 1 mg/mL of SA solution for 12 h (overnight) in a 4° C. fridge, followed by blocking the surface with EA buffer for 30 minutes. Then, the slide was rinsed with PBS buffer and Milli-Q water, and dried b centrifugation (1,700 g, 2 min).
In parallel, biotin-labeled DNA/RNA oligos were prepared in annealing buffer resulting in 5 μM stock solutions, followed by annealing (according to above methods). Then all the oligo solutions were transferred into a 384-well plate. Next, the microarray printing was conducted by a robotic arrayer (Nanoprint, Arrayit, USA) with a humidity of 60%. After the microarray was fabricated, the slide was placed in a slide box with a piece of wet Kimwipe tissue and incubated at 4° C. for 2 h.
To incubate with the fluorescent compounds (compound B33, thiazole orange (“TO”), and amsacrine), the slide was thoroughly rinsed with PBST, PBS, and water to remove the unbounded oligos. Then, the slide was dried by centrifugation (1,700 g, 2 min) and quickly assembled with microarray gaskets (Agilent, USA), followed by loading the compound solutions. After 1 h incubation, the slide was washed and dried with the above-mentioned method. Finally, the microarray slide was imaged by a fluorescence scanner (Mapix) using green channel and the fluorescence intensities were quantified.

MYCN hairpin-G4 DNA = assay: FIA using compound fluorescence (Ex 340/Em 500 nm), titration with unlabeled MYCN G4 DNA; assay type: binding, human; conditions: 100 nM compound titrated with folded unlabeled MYCN G4
How it was run: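 Compound at 100 nM final (5% DMSO) was titrated with serially diluted, pre-annealed unlabeled MYCN G4 DNA and incubated 30 min at room temperature. Intrinsic compound fluorescence (Ex 340/Em 500 nm) was normalised, and affinity was fitted to a one-site total model.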

[2] = molecular target: five 5′Cy5-labeled G4s from cancer-relevant genes (BCL2, KRAS, mTOR, NRAS, telomeric DNA); assay: FIA selectivity profiling with five other 5′Cy5-labeled G4s; assay type: binding; conditions: five 5′Cy5-labeled G4s other than MYCN
MYCN mRNA = assay: qRT-PCR of MYCN mRNA in NBEB cells; assay type: cell-based; conditions: NBEB cells, 24, 36, 48 h, higher concentrations
Description: (§1) To examine the effects of G4-binding compounds on NBEB cells, live-cell imaging was performed using an Incucyte interface (described below). NBEB (5K/well), cells were seeded into 96-well plates in triplicate, treated with compound MY-8 at various concentrations (0-45 μM), and cultured until control wells reached confluence. For RT-qPCR and western blotting, NBEB (300K) cells were treated with MY-8 in 6-well dish for 48 h. To examine the time-dependent decrease in MYCNOs expression, cells were treated with 22.5 μM and 45 μM MY-8 and analyzed at various times (0, 4, 24, 48, 72 and 96 h). To validate cell viability, a Trypan Blue exclusion test was performed following treatment at 48 h and 96 h post treatment and the proportion of live versus dead cells was calculated using a hemocytometer.
(§2) Quantitative RT-PCR. Total RNA was extracted from NBEB cells according to manufacturer's instructions (RNeasy Plus Mini Extraction kit (#74134) (Qiagen, CA). RNA (1 μg) was reverse transcribed into cDNA using the cDNA synthesis High-Capacity RNA-to-cDNA™ Kit. Quantitative PCR was performed using Fast SYBR™ Green Master Mix according to the manufacturer's protocol. Beta-actin was used as a housekeeping gene. Relative expression was calculated using the 2(−ΔCt) method. The qPCR primer sequences can be found in supplementary materials.

NBEB cells [3] = assay: Incucyte live cell imaging of cell confluence; assay type: cell-based; conditions: 4-day measurement after single treatment, 0-45 μM
Description: Cell lines and cell culture. The neuroblastoma cell line NBEB (Single Copy MYCN) cells were used to evaluate the efficacy of the MYCN/MYCNOs G-quadruplex binding molecules. NBEB came from stocks in Pediatric Oncology Branch, National Cancer Institute, National Institutes of Health, Bethesda, MD and have been […]. Cells were cultured in RPMI-1640, supplemented with 10% FBS (Atlanta Biologicals, Atlanta), 2 mM glutamine (Life Technologies, New York), and antibiotics (penicillin 100 μg/mL, streptomycin 100 μg/mL; Life Technologies, New York) at 37° C. in a 5% CO2 incubator.
To examine the effects of G4-binding compounds on NBEB cells, live-cell imaging was performed using an Incucyte interface (described below). […] To examine the time-dependent decrease in MYCNOs expression, cells were treated with 22.5 μM and 45 μM MY-8 and analyzed at various times (0, 4, 24, 48, 72 and 96 h). To validate cell viability, a Trypan Blue exclusion test was performed following treatment at 48 h and 96 h post treatment and the proportion of live versus dead cells was calculated using a hemocytometer.
Incucyte live cell imaging system. […] Incucyte measured cell confluence from pre-defined processing definitions for NBEB NB cells. […]

[4] = system: MYCNOS001 and MYCNOS002 transcripts; assay: qRT-PCR of MYCNOS transcripts in NBEB cells; assay type: cell-based
Description: as §1, with “For RT-qPCR and western blotting, NBEB (300K) cells were treated with MY-8 in 6-well dish for 48 h. To examine the time-dependent decrease in MYCNOs expression, cells were treated with 22.5 μM and 45 μM MY-8 and analyzed at various times (0, 4, 24, 48, 72 and 96 h).” left out
as §2

NBEB cells [5] = assay: MTS cell survival assay; assay type: cell-based; conditions: up to 45 μM
Description: as §1
Cell survival. Following live cell image analysis, a 3-(4, 5-dimethylthiazol-2-yl)-5-(3-carboxymethoxyphenyl)-2-(4-sulfophenyl)-2H-tetrazolium inner salt assay was performed to examine cell survival. (MTS; inner salt assay; Promega, America). Absorbance was measured with a microplate reader (BIO-RAD, America) at 490 nm wavelength. To calculate the proportion of viable cells, MY-8 treated cells were divided by the control samples from each group.

[6] = NBEB cells, 24, 36, 48 h, higher concentrations

COc1ccc(-c2noc(-c3ccc(NCCCNc4c5ccc(Cl)cc5nc5ccc(OC)cc45)nn3)n2)cc1 [B33, N^1-(6-chloro-2-methoxyacridin-9-yl)-N^3-(6-(3-(4-methoxyphenyl)-1,2,4-oxadiazol-5-yl)pyridazin-3-yl)propane-1,3-diamine]
binding to dsDNA/ssDNA in microarray [1]: no binding to dsDNA/ssDNA was observed | binding to hairpin containing G4 DNAs hTERT and BCL2 in microarray [1]: didn't show fluorescence | binding pattern in G4 microarray ([1]; fluorescent compound incubated 1 h): only MYCN spots lighted up | Kd (MYCN hairpin-G4 DNA): 0.066 ± 0.007 µM

COc1ccc(-c2noc(-c3ccc(NCCCN4CCCC4)nn3)n2)cc1 [MY-1, 6-(3-(4-methoxyphenyl)-1,2,4-oxadiazol-5-yl)-N-(3-(pyrrolidin-1-yl)propyl)pyridazin-3-amine]
binding affinities (KD) to other G4s [2]: no significant quenching behavior

COc1ccc(-c2noc(-c3ccc(NCCCN4CCCCCC4)nn3)n2)cc1 [MY-8, N-(3-(azepan-1-yl)propyl)-6-(3-(4-methoxyphenyl)-1,2,4-oxadiazol-5-yl)pyridazin-3-amine]
MYCN mRNA level (MYCN mRNA): clear decreases of mRNA level | NBEB cell growth (cell confluence) (NBEB cells [3]): significant inhibition of NBEB cell growth | MYCNOS001 mRNA level [4, 6]: clear decreases of mRNA level | MYCNOS002 mRNA level [4, 6]: clear decreases of mRNA level | onset of MYCNOS002 decrease ([4]; NBEB cells, time course): decreased as early as 24 h | CC50 (NBEB cells [5]): 20.5 µM
